Source: the supplement of paper PMC10307832

Assays:
Test in all cases: relative viability (nuclei count vs DMSO), 5 days (fraction); higher = more cells survive
BMX-IN-1 + Lapatinib = compound: C=CC(=O)Nc1cc(-n2c(=O)ccc3cnc4ccc(-c5ccc(NS(C)(=O)=O)cc5)cc4c32)ccc1C [BMX-IN-1] + CS(=O)(=O)CCNCc1ccc(-c2ccc3ncnc(Nc4ccc(OCc5cccc(F)c5)c(Cl)c4)c3c2)o1 [Lapatinib] (partner 2 µM)
Method in brief: (§1)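 Lung cancer cell lines were seeded in 1536-well plates and dosed by pin tool the next day, with either a single drug or a fixed anchor-drug dose combined with five library-drug doses (not always all listed) spaced in √10 steps. Five days later, one step fixed the cells and stained their nuclei (final 0.05% Triton X-100, 1% formaldehyde, 1 ug/ml Hoechst), and nuclei were counted on 4× images. Relative viability is the nuclei count in treated wells divided by the count in vehicle wells, and each value is the median of duplicate plates.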

BMX-IN-1 + Bortezomib = compound: C=CC(=O)Nc1cc(-n2c(=O)ccc3cnc4ccc(-c5ccc(NS(C)(=O)=O)cc5)cc4c32)ccc1C [BMX-IN-1] + CC(C)C[C@H](NC(=O)[C@H](Cc1ccccc1)NC(=O)c1cnccn1)B(O)O [Bortezomib] (partner 0.002 µM)
Method in brief: as §1

BMX-IN-1 + Dasatinib = compound: C=CC(=O)Nc1cc(-n2c(=O)ccc3cnc4ccc(-c5ccc(NS(C)(=O)=O)cc5)cc4c32)ccc1C [BMX-IN-1] + Cc1nc(Nc2ncc(C(=O)Nc3c(C)cccc3Cl)s2)cc(N2CCN(CCO)CC2)n1 [Dasatinib] (partner 0.075 µM)
Method in brief: as §1

BMX-IN-1 + Foretinib = compound: C=CC(=O)Nc1cc(-n2c(=O)ccc3cnc4ccc(-c5ccc(NS(C)(=O)=O)cc5)cc4c32)ccc1C [BMX-IN-1] + COc1cc2c(Oc3ccc(NC(=O)C4(C(=O)Nc5ccc(F)cc5)CC4)cc3F)ccnc2cc1OCCCN1CCOCC1 [Foretinib] (partner 0.25 µM)
Method in brief: as §1

Cell Line | relative viability (BMX-IN-1 + Lapatinib; first compound 0.02 µM) | relative viability (BMX-IN-1 + Lapatinib; first compound 0.2 µM) | relative viability (BMX-IN-1 + Lapatinib; first compound 0.6325 µM) | relative viability (BMX-IN-1 + Lapatinib; first compound 2 µM) | relative viability (BMX-IN-1 + Bortezomib; first compound 0.02 µM) | relative viability (BMX-IN-1 + Bortezomib; first compound 0.2 µM) | relative viability (BMX-IN-1 + Bortezomib; first compound 0.6325 µM) | relative viability (BMX-IN-1 + Bortezomib; first compound 2 µM) | relative viability (BMX-IN-1 + Dasatinib; first compound 0.02 µM) | relative viability (BMX-IN-1 + Dasatinib; first compound 0.2 µM) | relative viability (BMX-IN-1 + Dasatinib; first compound 0.6325 µM) | relative viability (BMX-IN-1 + Dasatinib; first compound 2 µM) | relative viability (BMX-IN-1 + Foretinib; first compound 0.02 µM) | relative viability (BMX-IN-1 + Foretinib; first compound 0.2 µM) | relative viability (BMX-IN-1 + Foretinib; first compound 0.6325 µM) | relative viability (BMX-IN-1 + Foretinib; first compound 2 µM)
HCC-78 | 0.812 | 0.835 | 0.663 | 0.878 | 0.534 | 0.474 | 0.432 | 0.546 | 0.379 | 0.421 | 0.37 | 0.462 | 0.626 | 0.544 | 0.587 | 0.545
HCC-366 | 1.53 | 1.65 | 1.07 | 1.12 | 1.88 | 1.78 | 1.28 | 1.09 | 0.907 | 0.741 | 0.618 | 0.71 | 1.03 | 0.962 | 1.01 | 0.886
HCC-827 | 0.189 | 0.203 | 0.193 | 0.206 | 1.11 | 1.09 | 1.16 | 1.11 | 0.296 | 0.277 | 0.371 | 0.276 | 1.01 | 1.02 | 1.03 | 1.03
HOP-62 | 1.05 | 1.16 | 0.955 | 1.04 | 0.934 | 0.851 | 0.769 | 0.6 | 0.587 | 0.786 | 0.768 | 0.729 | 1.26 | 1.27 | 1.09 | 1.1
IA-LM | 0.925 | 0.902 | 0.994 | 0.867 | 0.884 | 0.928 | 0.984 | 0.884 |  |  |  |  | 1.53 | 1.31 | 1.15 | 1.21
LC-2-ad | 1.12 | 1.12 | 1.09 | 1.05 | 1.02 | 1.28 | 1.01 | 1.04 | 0.658 | 0.737 | 0.74 | 0.642 | 0.878 | 0.926 | 0.975 | 0.946
LCLC-97TM1 | 0.862 | 1.24 | 1.41 | 0.816 | 0.332 | 0.562 | 0.629 | 0.505 | 0.927 | 0.893 | 1 | 0.943 | 1.01 | 0.917 | 1.03 | 1.1
LCLC-103H |  |  |  |  | 1.11 | 0.972 | 1.25 | 0.932 | 0.519 | 0.477 | 0.522 | 0.535 | 0.879 | 0.78 | 0.882 | 0.735
LK-2 | 1.1 | 1.37 | 0.68 | 0.924 |  |  |  |  | 0.338 | 0.325 | 0.304 | 0.282 | 1.59 | 1.54 | 1.04 | 1.03
NCI-H358 | 0.48 | 0.431 | 0.4 | 0.412 |  |  |  |  | 0.166 | 0.145 | 0.176 | 0.135 | 0.855 | 0.777 | 0.887 | 0.701
NCI-H441 |  |  |  |  | 0.483 | 0.517 | 0.483 | 0.27 | 0.741 | 0.79 | 0.709 | 0.707 | 1.26 | 1.05 | 1.14 | 0.876
NCI-H522 |  |  |  |  |  |  |  |  | 0.894 | 1.02 | 0.89 | 0.821 |  |  |  | 
NCI-H1299 | 1 | 0.986 | 1.06 | 0.962 | 0.968 | 1.08 | 1.13 | 0.97 |  |  |  |  | 1.12 | 1.06 | 1.16 | 1.06
NCI-H1395 | 1.03 | 0.996 | 1.12 | 0.951 |  |  |  |  | 0.408 | 0.579 | 0.462 | 0.391 | 1.1 | 0.968 | 0.949 | 0.908
NCI-H1623 |  |  |  |  |  |  |  |  | 0.529 | 0.526 | 0.569 | 0.504 | 0.853 | 1.02 | 0.798 | 0.788
NCI-H1703 | 1.69 | 1.24 | 1.31 | 0.677 | 0.257 | 0.329 | 0.337 | 0.242 |  |  |  |  | 0.358 | 0.351 | 0.298 | 0.322
NCI-H1792 | 0.834 | 1.04 | 0.937 | 0.922 | 1.25 | 1.4 | 0.912 | 0.956 |  | 0.817 | 0.714 | 0.862 |  |  |  | 
NCI-H1793 | 0.755 | 1.22 | 0.72 | 0.872 |  |  |  |  | 0.417 | 0.432 | 0.479 | 0.451 | 0.856 | 0.856 | 0.656 | 0.699
NCI-H1944 | 0.986 | 0.866 | 0.919 | 0.921 |  |  |  |  | 0.203 | 0.188 | 0.222 | 0.206 | 0.972 | 0.83 | 0.976 | 0.905
NCI-H2170 | 0.281 | 0.28 | 0.272 | 0.271 |  |  |  |  | 0.609 | 0.634 | 0.67 | 0.586 | 1.23 | 0.975 | 0.993 | 0.987
NCI-H2342 |  |  |  |  |  |  |  |  | 0.31 | 0.326 | 0.307 | 0.327 | 1.06 | 1.04 | 1.04 | 1.24
SW 900 |  |  |  |  |  |  |  |  | 0.568 | 0.835 | 0.521 | 0.714 | 0.815 | 0.944 | 0.757 | 0.802
